Test results published in patent publication US10772893B2, “2-(morpholin-4-yl)-1,7-naphthyridines” (BAYER PHARMA AKTIENGESELLSCHAFT, priority 2014, dated 2020).

test system: HeLa cells; experiment: Proliferation assay, crystal violet staining; conditions: Homo sapiens, 96 h, read-out: Inhibition of HeLa cell proliferation
Experimental: After 24 hours, the cells of one plate (zero plate) were dyed with crystal violet (see below), whereas the medium of the other plates was replaced with fresh culture medium (200 μl) to which the test substances were added in various concentrations (0 μM, and also in the range of 0.001-10 μM; the final concentration of the solvent dimethyl sulphoxide was 0.1 or 0.5%). The cells were incubated for 4 days in the presence of the test substances. […] After washing the fixed cells three times with water, the plates were dried at room temperature. The cells were stained by adding 100 μl/measurement point of a 0.1% strength crystal violet solution (pH adjusted to pH 3 by adding acetic acid). After washing the cells three times with water, the plates were dried at room temperature. The dye was dissolved by adding 100 μl/measurement point of a 10% strength acetic acid solution. […] The percentage change in cell growth was calculated by normalizing the measured values to the absorbance values of the zero plate (=0%) and the absorbance of the untreated (0 W) cells (=100%). The IC50 values were determined by means of a four parameter fit.

SMILES	IC50
CCOP(=O)(CC(C)C)c1cc(N2CCOC[C@H]2C)nc2c(-c3ccn[nH]3)nccc12 (stereo partly drawn) [Example 144, ethyl isobutyl{2-[(3R)-3-methylmorpholin-4-yl]-8-(1H-pyrazol-5-yl)-1,7-naphthyridin-4-yl}phosphinate]	> 3000 nM

same assay, conditions: Homo sapiens, 96 h, read-out: Inhibition of HeLa cell proliferation, HeLa cells, 4 days incubation

SMILES	IC50
C[C@@H]1COCCN1c1cc(-c2cncc(Cl)c2)c2ccnc(-c3ccn[nH]3)c2n1 [Example 130, 4-(5-chloropyridin-3-yl)-2-[(3R)-3-methylmorpholin-4-yl]-8-(1H-pyrazol-5-yl)-1,7-naphthyridine]	374 nM
C[C@@H]1COCCN1c1cc(-c2ccc(F)cc2N)c2ccnc(-c3ccn[nH]3)c2n1 [Example 131, 5-fluoro-2-{2-[(3R)-3-methylmorpholin-4-yl]-8-(1H-pyrazol-5-yl)-1,7-naphthyridin-4-yl}aniline]	349 nM
C[C@@H]1COCCN1c1cc(-c2cccc(S(C)(=O)=O)c2F)c2ccnc(-c3ccn[nH]3)c2n1 [Example 132, 4-[2-fluoro-3-(methylsulfonyl)phenyl]-2-[(3R)-3-methylmorpholin-4-yl]-8-(1H-pyrazol-5-yl)-1,7-naphthyridine]	507 nM
C[C@@H]1COCCN1c1cc(-c2ccc(N3CCCC3)cc2F)c2ccnc(-c3ccn[nH]3)c2n1 [Example 134, 4-[2-fluoro-4-(pyrrolidin-1-yl)phenyl]-2-[(3R)-3-methylmorpholin-4-yl]-8-(1H-pyrazol-5-yl)-1,7-naphthyridine]	1530 nM
COCc1noc(C)c1-c1cc(N2CCOC[C@H]2C)nc2c(-c3ccn[nH]3)nccc12 [Example 135, 4-[3-(methoxymethyl)-5-methyl-1,2-oxazol-4-yl]-2-[(3R)-3-methylmorpholin-4-yl]-8-(1H-pyrazol-5-yl)-1,7-naphthyridine]	1820 nM
C[C@@H]1COCCN1c1cc(N=S(C)(=O)c2ccc(F)cc2)c2ccnc(-c3ccn[nH]3)c2n1 (stereo partly drawn) [Example 138, 4-{[(4-fluorophenyl)(methyl)oxido-λ^6-sulfanylidene]amino}-2-[(3R)-3-methylmorpholin-4-yl]-8-(1H-pyrazol-5-yl)-1,7-naphthyridine]	619 nM
C[C@@H]1COCCN1c1cc(N=S(C)(=O)c2ccccc2F)c2ccnc(-c3ccn[nH]3)c2n1 (stereo partly drawn) [Example 139, 4-{[(2-fluorophenyl)(methyl)oxido-λ^6-sulfanylidene]amino}-2-[(3R)-3-methylmorpholin-4-yl]-8-(1H-pyrazol-5-yl)-1,7-naphthyridine]	1370 nM
C[C@@H]1COCCN1c1cc(-c2cnc(S(C)(=O)=O)c(F)c2)c2ccnc(-c3ccn[nH]3)c2n1 [Example 147, 4-[5-fluoro-6-(methylsulfonyl)pyridin-3-yl]-2-[(3R)-3-methylmorpholin-4-yl]-8-(1H-pyrazol-5-yl)-1,7-naphthyridine]	953 nM
C[C@@H]1COCCN1c1cc(-c2cccc(F)n2)c2ccnc(-c3ccn[nH]3)c2n1 [Example 152, 4-(6-fluoropyridin-2-yl)-2-[(3R)-3-methylmorpholin-4-yl]-8-(1H-pyrazol-5-yl)-1,7-naphthyridine]	671 nM
C[C@@H]1COCCN1c1cc(-c2cccnc2N)c2ccnc(-c3ccn[nH]3)c2n1 [Example 155, 3-{2-[(3R)-3-methylmorpholin-4-yl]-8-(1H-pyrazol-5-yl)-1,7-naphthyridin-4-yl}pyridin-2-amine]	959 nM
C[C@@H]1COCCN1c1cc(-c2ccn(CCF)n2)c2ccnc(-c3ccn[nH]3)c2n1 [Example 158, 4-[1-(2-fluoroethyl)-1H-pyrazol-3-yl]-2-[(3R)-3-methylmorpholin-4-yl]-8-(1H-pyrazol-5-yl)-1,7-naphthyridine]	328 nM
C[C@@H]1COCCN1c1cc(-c2ccnn2CCF)c2ccnc(-c3ccn[nH]3)c2n1 [Example 159, 4-[1-(2-fluoroethyl)-1H-pyrazol-5-yl]-2-[(3R)-3-methylmorpholin-4-yl]-8-(1H-pyrazol-5-yl)-1,7-naphthyridine]	61.6 nM
C[C@@H]1COCCN1c1cc(-c2ccn(CCO)n2)c2ccnc(-c3ccn[nH]3)c2n1 [Example 160, 2-(3-{2-[(3R)-3-methylmorpholin-4-yl]-8-(1H-pyrazol-5-yl)-1,7-naphthyridin-4-yl}-1H-pyrazol-1-yl)ethanol]	451 nM
C[C@@H]1COCCN1c1cc(-c2ccn(CC(C)(C)O)n2)c2ccnc(-c3ccn[nH]3)c2n1 [Example 161, 2-methyl-1-(3-{2-[(3R)-3-methylmorpholin-4-yl]-8-(1H-pyrazol-5-yl)-1,7-naphthyridin-4-yl}-1H-pyrazol-1-yl)propan-2-ol]	588 nM

More lines, now with the values ahead:

IC50	SMILES
686 nM	CCC(O)(CC)c1cc(N2CCOC[C@H]2C)nc2c(-c3ccn[nH]3)nccc12 [Example 129, 3-{2-[(3R)-3-methylmorpholin-4-yl]-8-(1H-pyrazol-5-yl)-1,7-naphthyridin-4-yl}pentan-3-ol]
1070 nM	C[C@@H]1COCCN1c1cc(-c2ccnn2C2COC2)c2ccnc(-c3ccn[nH]3)c2n1 [Example 133, 2-[(3R)-3-methylmorpholin-4-yl]-4-[1-(oxetan-3-yl)-1H-pyrazol-5-yl]-8-(1H-pyrazol-5-yl)-1,7-naphthyridine]
575 nM	Cc1nnc(-c2cc(N3CCOC[C@H]3C)nc3c(-c4ccn[nH]4)nccc23)o1 [Example 136, 2-[(3R)-3-methylmorpholin-4-yl]-4-(5-methyl-1,3,4-oxadiazol-2-yl)-8-(1H-pyrazol-5-yl)-1,7-naphthyridine]
1590 nM	C[C@@H]1COCCN1c1cc(P(C)(C)=O)c2ccnc(-c3ccn[nH]3)c2n1 [Example 142, 4-(dimethylphosphoryl)-2-[(3R)-3-methylmorpholin-4-yl]-8-(1H-pyrazol-5-yl)-1,7-naphthyridine]
543 nM	CCP(=O)(CC)c1cc(N2CCOC[C@H]2C)nc2c(-c3ccn[nH]3)nccc12 [Example 143, 4-(diethylphosphoryl)-2-[(3R)-3-methylmorpholin-4-yl]-8-(1H-pyrazol-5-yl)-1,7-naphthyridine]
1110 nM	CC(C)Cn1nccc1-c1cc(N2CCOC[C@H]2C)nc2c(-c3ccn[nH]3)nccc12 [Example 146, 4-(1-isobutyl-1H-pyrazol-5-yl)-2-[(3R)-3-methylmorpholin-4-yl]-8-(1H-pyrazol-5-yl)-1,7-naphthyridine]
805 nM	C[C@@H]1COCCN1c1cc(N2CCOCC2)nc2c(-c3ccn[nH]3)nccc12 [Example 148, 4-[(3R)-3-methylmorpholin-4-yl]-2-(morpholin-4-yl)-8-(1H-pyrazol-5-yl)-1,7-naphthyridine]
759 nM	CCn1cnc(-c2cc(N3CCOC[C@H]3C)nc3c(-c4ccn[nH]4)nccc23)c1 [Example 153, 4-(1-ethyl-1H-imidazol-4-yl)-2-[(3R)-3-methylmorpholin-4-yl]-8-(1H-pyrazol-5-yl)-1,7-naphthyridine]
1220 nM	C[C@@H]1CN(c2cc(N3CCOCC3)nc3c(-c4ccn[nH]4)nccc23)CCO1 [Example 162, 4-[(2R)-2-methylmorpholin-4-yl]-2-(morpholin-4-yl)-8-(1H-pyrazol-5-yl)-1,7-naphthyridine]
2410 nM	C[C@H]1CN(c2cc(N3CCOCC3)nc3c(-c4ccn[nH]4)nccc23)CCO1 [Example 170, 4-[(2S)-2-methylmorpholin-4-yl]-2-(morpholin-4-yl)-8-(1H-pyrazol-5-yl)-1,7-naphthyridine]
2100 nM	C[C@@H]1COCCN1c1cc(OC(F)F)c2ccnc(-c3ccn[nH]3)c2n1 [Example 172, 4-(difluoromethoxy)-2-[(3R)-3-methylmorpholin-4-yl]-8-(1H-pyrazol-5-yl)-1,7-naphthyridine]
> 3000 nM	CC(C)(O)c1cc(N2CCOCC2)nc2c(-c3ccn[nH]3)nccc12 [Example 173, 2-[2-(morpholin-4-yl)-8-(1H-pyrazol-5-yl)-1,7-naphthyridin-4-yl]propan-2-ol]
2520 nM	O=C1CN(c2cc(N3CCOCC3)nc3c(-c4ccn[nH]4)nccc23)CCN1 [Example 176, 4-[2-(morpholin-4-yl)-8-(1H-pyrazol-5-yl)-1,7-naphthyridin-4-yl]piperazin-2-one]
> 3000 nM	CP(C)(=O)c1cc(N2CCOCC2)nc2c(-c3ccn[nH]3)nccc12 [Example 177, 4-(dimethylphosphoryl)-2-(morpholin-4-yl)-8-(1H-pyrazol-5-yl)-1,7-naphthyridine]
> 3000 nM	C[C@@H]1CN(c2cc(N3CCOCC3)nc3c(-c4ccn[nH]4)nccc23)C[C@H](C)N1 [Example 179, 4-[(cis)-3,5-dimethylpiperazin-1-yl]-2-(morpholin-4-yl)-8-(1H-pyrazol-5-yl)-1,7-naphthyridine]
> 3000 nM	c1cc(-c2nccc3c(N4C[C@@H]5C[C@H]4CO5)cc(N4CCOCC4)nc23)[nH]n1 [Example 185, 2-(morpholin-4-yl)-4-[(1S,4S)-2-oxa-5-azabicyclo[2.2.1]hept-5-yl]-8-(1H-pyrazol-5-yl)-1,7-naphthyridine]
789 nM	CSCc1cc(N2CCOC[C@H]2C)nc2c(-c3ccn[nH]3)nccc12 [Example 186, 2-[(3R)-3-methylmorpholin-4-yl]-4-[(methylsulfanyl)methyl]-8-(1H-pyrazol-5-yl)-1,7-naphthyridine]
1010 nM	C[C@@H]1COCCN1c1cc(C2(O)CCCCC2)c2ccnc(-c3ccn[nH]3)c2n1 [Example 189, 1-{2-[(3R)-3-methylmorpholin-4-yl]-8-(1H-pyrazol-5-yl)-1,7-naphthyridin-4-yl}cyclohexanol]
2120 nM	CS(=O)(=NC#N)c1ccc(-c2cc(N3CCOCC3)nc3c(-c4ccn[nH]4)nccc23)cc1 (stereo not drawn) [Example 191, (methyl{4-[2-(morpholin-4-yl)-8-(1H-pyrazol-5-yl)-1,7-naphthyridin-4-yl]phenyl}oxido-λ^6-sulfanylidene)cyanamide]
892 nM	C[C@@H]1COCCN1c1cc(-c2[nH]nnc2C2CC2)c2ccnc(-c3ccn[nH]3)c2n1 [Example 194, 4-(4-cyclopropyl-1H-1,2,3-triazol-5-yl)-2-[(3R)-3-methylmorpholin-4-yl]-8-(1H-pyrazol-5-yl)-1,7-naphthyridine]
3010 nM	CC[S+]([O-])c1cc(N2CCOCC2)nc2c(-c3ccn[nH]3)nccc12 (stereo not drawn) [Example 195, 4-ethylsulfinyl-2-(morpholin-4-yl)-8-(1H-pyrazol-5-yl)-1,7-naphthyridine]
